# Test results from ChEMBL document CHEMBL1201862, “PubChem BioAssay data set” (2004).
# Activity calls are given as the source filed them.
# Tests used:
# [1] = target: T1, RNA-binding protein pos-1 (Caenorhabditis elegans, UniProt G5EF15); assay: inhibitors of POS-1/mex-3 RNA binding, dose response, biochemical, fluorescence polarization (AID 1964);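 further: purified POS-1 fused to maltose binding protein made in E. coli; potency of compounds blocking POS-1 binding to fluorescent RNA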
# T1 sequence (G5EF15 whole entry): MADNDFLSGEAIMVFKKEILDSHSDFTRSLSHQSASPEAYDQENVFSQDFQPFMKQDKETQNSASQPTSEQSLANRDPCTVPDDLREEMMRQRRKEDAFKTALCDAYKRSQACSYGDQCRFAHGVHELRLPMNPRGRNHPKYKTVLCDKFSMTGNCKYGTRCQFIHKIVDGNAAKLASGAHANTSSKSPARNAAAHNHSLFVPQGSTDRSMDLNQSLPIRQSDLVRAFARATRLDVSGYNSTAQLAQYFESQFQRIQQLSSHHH
# [2] = target: T2, Zinc finger protein mex-5 (Caenorhabditis elegans, UniProt Q9XUB2); assay: MEX-5/TCR-2 RNA interaction inhibitors, dose response, biochemical, C. elegans, fluorescence polarization (AID 1960)
# T2 sequence (Q9XUB2 whole entry): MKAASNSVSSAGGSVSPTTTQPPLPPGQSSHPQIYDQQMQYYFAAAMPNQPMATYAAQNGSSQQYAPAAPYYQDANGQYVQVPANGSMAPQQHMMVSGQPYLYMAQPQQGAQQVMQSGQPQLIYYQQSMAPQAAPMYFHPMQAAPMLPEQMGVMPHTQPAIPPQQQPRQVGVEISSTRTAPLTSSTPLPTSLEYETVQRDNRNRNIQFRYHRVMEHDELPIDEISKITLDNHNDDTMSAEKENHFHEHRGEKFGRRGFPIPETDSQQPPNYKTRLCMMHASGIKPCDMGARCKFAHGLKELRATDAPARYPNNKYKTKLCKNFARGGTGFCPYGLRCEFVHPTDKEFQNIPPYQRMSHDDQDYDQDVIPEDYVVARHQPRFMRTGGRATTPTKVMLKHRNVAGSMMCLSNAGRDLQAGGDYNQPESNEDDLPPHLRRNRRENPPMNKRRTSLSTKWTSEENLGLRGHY
# [3] = Luminescence Cell-Based Dose Confirmation HTS to Identify Inhibitors of Platelet Dense Granule Release. [Related pubchem assays: 1663 (Primary HTS), 1678 (Summary of Project)]; format: functional
# [4] = target: Luciferin 4-monooxygenase (Photinus pyralis, UniProt P08659); assay: firefly luciferase enzyme inhibitors, dose response, biochemical, luminescence (AID 1891)
# Streptococcus = assay: Group A Streptococcus viability loss, dose response, counter-screen for streptokinase expression inhibitor project, luminescence, BacTiterGlo (AID 1915); format: functional, organism-based;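 further: potency for reduction of bacterial viability or growth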
# [5] = tested on: Streptococcus sp. 'group A'; assay: growth inhibition of control SK(-) GAS strain, dose response, counter-screen for streptokinase expression inhibitor project, luminescence, kanamycin, BacTiterGlo, confirmation (AID 1900); format: functional, organism-based
# Streptokinase A = target: T3, Streptokinase A (Streptococcus pyogenes serotype M1, UniProt P10520); assay: S. pyogenes streptokinase expression inhibitors, potency, dose response, plasminogen activation absorbance, OD405 (AID 1914); format: functional, Streptococcus pyogenes M1 GAS;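 further: secreted streptokinase activity via plasminogen activation per viability signal from cell pellet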
# T3 sequence (P10520 whole entry): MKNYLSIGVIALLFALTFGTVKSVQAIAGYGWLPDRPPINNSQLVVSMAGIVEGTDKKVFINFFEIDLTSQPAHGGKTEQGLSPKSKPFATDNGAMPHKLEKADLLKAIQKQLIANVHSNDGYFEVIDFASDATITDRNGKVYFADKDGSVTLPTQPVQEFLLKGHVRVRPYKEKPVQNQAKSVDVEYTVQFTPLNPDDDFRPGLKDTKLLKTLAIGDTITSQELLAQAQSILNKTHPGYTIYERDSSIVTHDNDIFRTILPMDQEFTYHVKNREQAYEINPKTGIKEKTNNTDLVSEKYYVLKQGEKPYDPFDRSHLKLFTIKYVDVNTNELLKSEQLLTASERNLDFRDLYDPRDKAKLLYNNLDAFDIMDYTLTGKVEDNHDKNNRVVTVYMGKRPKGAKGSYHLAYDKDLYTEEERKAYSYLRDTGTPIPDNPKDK
# Cytochrome P450 2C9 = Cytochrome P450 2C9 (Homo sapiens, UniProt P11712)
# [6] = inhibitors of firefly luciferase expression or activity, dose response, H4 neuroglioma cells, luminescence (AID 1990); format: functional, cell-based
# [7] = inhibitors of SNCA 5'UTR-driven reporter translation, confirmation, H4 neuroglioma cells, luminescence (AID 1988); format: functional, cell-based
# [8] = Luminescence Cell-Based Dose Response HTS to Identify Inhibitors of 5'UTR Stem-Loop Driven Prion Protein mRNA Translation in H4 Neuroglioblastoma Cells. [Related pubchem assays: 1827 (Project Summary), 1813 (Primary HTS)]; format: functional
# INS1 = assay: beta cell apoptosis inhibitors, cytokine rescue, dose response, luminescence, retest (AID 449756); format: functional, cell-based; conditions: Rattus norvegicus;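 further: cell death triggered by IL-1 beta plus TNF-alpha plus IFN-gamma mixture; protective hits raise ATP signal compared with cytokine alone wells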
# Cytochrome P450 2D6 = Cytochrome P450 2D6 (Homo sapiens, UniProt P10635);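 further: CYP2D6 member of a cytochrome P450 panel assay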
# Cytochrome P450 1A2 = target: T4, Cytochrome P450 1A2 (Homo sapiens, UniProt P05177);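 further: PubChem cytochrome P450 panel assay, CYP1A2 panel member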
# T4 sequence (P05177 whole entry): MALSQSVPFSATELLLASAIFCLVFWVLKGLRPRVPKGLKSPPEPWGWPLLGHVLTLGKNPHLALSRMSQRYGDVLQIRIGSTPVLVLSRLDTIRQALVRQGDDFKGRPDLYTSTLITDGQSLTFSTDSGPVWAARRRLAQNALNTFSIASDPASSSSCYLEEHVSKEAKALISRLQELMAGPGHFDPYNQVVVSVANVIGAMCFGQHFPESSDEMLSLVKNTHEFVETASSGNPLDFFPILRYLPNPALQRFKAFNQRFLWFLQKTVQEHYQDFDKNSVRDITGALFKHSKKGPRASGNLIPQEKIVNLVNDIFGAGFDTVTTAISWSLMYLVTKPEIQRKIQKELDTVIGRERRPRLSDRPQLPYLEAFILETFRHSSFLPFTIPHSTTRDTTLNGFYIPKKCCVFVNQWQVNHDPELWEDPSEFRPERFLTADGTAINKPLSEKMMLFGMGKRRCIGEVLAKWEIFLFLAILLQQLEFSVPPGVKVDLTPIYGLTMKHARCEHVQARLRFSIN
# Cytochrome P450 2C19 = Cytochrome P450 2C19 (Homo sapiens, UniProt P33261); assay: Cytochrome panel assay with activity outcomes. Panel member name: p450-cyp2c19 Compounds with AC50 equal or less than 10 uM are considered active; format: functional; conditions: read-out: AC50
# Cytochrome P450 2C19, sequence (P33261 whole entry): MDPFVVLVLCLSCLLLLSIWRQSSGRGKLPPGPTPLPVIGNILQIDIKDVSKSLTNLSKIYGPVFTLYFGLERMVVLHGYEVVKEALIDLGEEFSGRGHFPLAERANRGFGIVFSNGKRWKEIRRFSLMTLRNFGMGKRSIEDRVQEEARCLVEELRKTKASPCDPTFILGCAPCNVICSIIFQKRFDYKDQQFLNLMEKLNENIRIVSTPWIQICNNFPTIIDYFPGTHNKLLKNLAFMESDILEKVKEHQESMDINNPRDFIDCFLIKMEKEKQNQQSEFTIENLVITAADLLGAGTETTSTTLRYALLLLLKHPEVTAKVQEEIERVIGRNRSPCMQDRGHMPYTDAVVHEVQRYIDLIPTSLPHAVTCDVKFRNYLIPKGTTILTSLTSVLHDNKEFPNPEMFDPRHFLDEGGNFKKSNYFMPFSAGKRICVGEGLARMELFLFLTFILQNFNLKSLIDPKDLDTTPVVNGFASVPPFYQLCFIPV
# Luciferin 4-monooxygenase, sequence (P08659 whole entry): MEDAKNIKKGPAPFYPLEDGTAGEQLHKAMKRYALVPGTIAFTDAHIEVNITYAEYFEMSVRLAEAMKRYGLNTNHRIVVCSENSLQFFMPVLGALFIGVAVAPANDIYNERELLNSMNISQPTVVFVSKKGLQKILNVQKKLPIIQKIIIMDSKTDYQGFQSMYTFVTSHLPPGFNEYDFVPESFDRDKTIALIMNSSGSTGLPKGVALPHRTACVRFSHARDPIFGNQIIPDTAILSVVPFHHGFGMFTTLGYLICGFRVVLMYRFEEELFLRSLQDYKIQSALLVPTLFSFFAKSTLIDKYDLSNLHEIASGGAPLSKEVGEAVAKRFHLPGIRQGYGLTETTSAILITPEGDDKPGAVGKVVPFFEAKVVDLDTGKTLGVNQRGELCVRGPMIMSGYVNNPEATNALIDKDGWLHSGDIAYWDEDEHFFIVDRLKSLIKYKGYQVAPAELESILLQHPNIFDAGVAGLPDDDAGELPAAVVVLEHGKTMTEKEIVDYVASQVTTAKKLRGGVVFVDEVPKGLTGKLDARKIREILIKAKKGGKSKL
# Cytochrome P450 2C9, sequence (P11712 whole entry): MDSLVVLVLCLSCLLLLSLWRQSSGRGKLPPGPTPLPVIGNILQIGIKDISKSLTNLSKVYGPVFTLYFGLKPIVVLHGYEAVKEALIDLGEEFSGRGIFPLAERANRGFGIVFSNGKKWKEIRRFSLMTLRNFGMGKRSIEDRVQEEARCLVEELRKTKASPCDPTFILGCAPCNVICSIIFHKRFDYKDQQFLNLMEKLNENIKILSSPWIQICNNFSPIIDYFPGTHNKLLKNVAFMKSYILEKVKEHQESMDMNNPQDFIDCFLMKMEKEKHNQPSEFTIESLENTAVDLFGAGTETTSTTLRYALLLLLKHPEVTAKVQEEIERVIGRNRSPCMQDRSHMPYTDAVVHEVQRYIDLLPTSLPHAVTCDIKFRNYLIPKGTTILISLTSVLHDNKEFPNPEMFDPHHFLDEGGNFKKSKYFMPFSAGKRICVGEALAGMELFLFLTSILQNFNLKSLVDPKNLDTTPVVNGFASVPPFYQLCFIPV
# Cytochrome P450 2D6, sequence (P10635 whole entry): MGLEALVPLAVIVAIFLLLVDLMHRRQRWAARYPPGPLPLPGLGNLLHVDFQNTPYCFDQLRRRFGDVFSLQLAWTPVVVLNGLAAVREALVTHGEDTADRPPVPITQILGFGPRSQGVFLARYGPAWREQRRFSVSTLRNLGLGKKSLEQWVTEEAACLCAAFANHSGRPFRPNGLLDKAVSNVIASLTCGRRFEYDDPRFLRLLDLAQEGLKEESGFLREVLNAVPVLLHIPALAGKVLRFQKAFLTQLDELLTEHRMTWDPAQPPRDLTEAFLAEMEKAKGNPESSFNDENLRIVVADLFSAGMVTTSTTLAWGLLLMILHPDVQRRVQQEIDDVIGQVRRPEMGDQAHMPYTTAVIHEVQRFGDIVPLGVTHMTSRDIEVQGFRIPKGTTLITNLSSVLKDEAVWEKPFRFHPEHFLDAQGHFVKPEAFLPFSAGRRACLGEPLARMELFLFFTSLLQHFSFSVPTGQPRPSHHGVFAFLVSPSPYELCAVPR
structure (smiles),measurement,setting,value
Cc1cc(/C=C2\C(=O)NC(=O)N(c3ccc(Cl)cc3)C2=O)c(C)n1C,EC50,[1],63.5 µM (active)
Cc1ccc(C(=O)C2=C(O)C(=O)N(Cc3ccco3)C2c2ccc(N(C)C)cc2)o1 (stereo not drawn),EC50,[1],> 300 µM (not active)
same,EC50,[2],> 300 µM (not active)
CC(Oc1ccc(F)cc1)C(=O)Nc1ccccc1N1CCCCC1 (stereo not drawn),EC50,[3],21 µM (active)
same,EC50,[4],27.3 µM (active)
same,EC50,Streptococcus,19.9 µM (active)
same,EC50,[5],11.8 µM (active)
same,EC50,Streptokinase A,10.3 µM (active)
COc1cc(CNCc2cccs2)cc(Br)c1OC,AC50,Cytochrome P450 2C9,1.41 µM (inconclusive)
O=c1c(CCc2ccccc2)nc2cnc(Nc3ccccc3)nc2n1C[C@H]1CCCO1,AC50,Cytochrome P450 2C9,20 µM (inconclusive)
COC(=O)c1cc(NC(=O)c2c(Cl)nc3sccn23)cc(C(=O)OC)c1,EC50,[6],12.3 µM (active)
same,EC50,[7],9.13 µM (active)
same,EC50,[8],10.6 µM (active)
CCCCCN1C=CC=C/C1=C\C=C(C#N)C#N,EC50,[1],30.3 µM (inconclusive)
same,EC50,[2],> 300 µM (not active)
Cc1n[nH]c(NNC(=O)c2ccccc2)c1[N+](=O)[O-],EC50,[1],15.2 µM (active)
same,EC50,[2],4.96 µM (active)
CCOC(=O)C1=C(CNCc2ccc(F)cc2)NC(=O)NC1c1cccc([N+](=O)[O-])c1 (stereo not drawn),EC50,[3],> 112 µM (not active)
same,EC50,[4],> 112 µM (not active)
N#Cc1ccc(C(=O)Nc2nc(-c3cccs3)c(C(=O)C(F)(F)F)s2)cc1,AC50,INS1,4.75 µM (active)
O=c1oc(Nc2ccc(F)cc2)nc2ccccc12,EC50,[3],4.03 µM (active)
same,EC50,[4],8.06 µM (active)
CC1CN(c2nc3ccccc3nc2C(C#N)C(=O)NC2CCCCC2)CC(C)O1 (stereo not drawn),EC50,[1],> 300 µM (not active)
same,EC50,[2],> 300 µM (inconclusive)
COc1cc(OC)c(C2C(C#N)=C(N)OC3=C2C(=O)CC(C)(C)C3)cc1OC (stereo not drawn),EC50,[1],> 300 µM (not active)
same,EC50,[2],> 300 µM (not active)
O=C(Cn1cc(C(=O)C(F)(F)F)c2ccccc21)NCc1ccco1,EC50,[3],> 112 µM (not active)
same,EC50,[4],> 112 µM (not active)
O=c1cnc2cncnc2n1Cc1ccccc1Cl,AC50,Cytochrome P450 2D6,20 µM (inconclusive)
same,AC50,Cytochrome P450 1A2,15.8 µM (inconclusive)
same,AC50,Cytochrome P450 2C9,20 µM (inconclusive)
COc1ccc(NC(=O)c2sc3nc(-c4cccnc4)ccc3c2N)cc1,EC50,[1],40.6 µM (inconclusive)
same,EC50,[2],4.79 µM (active)
COC(=O)C1CSc2[nH]c(=O)sc2C1c1ccccc1 (stereo not drawn),EC50,[1],7.13 µM (active)
same,EC50,[2],7.46 µM (active)
COc1cccc(C(=O)NCC2CCN(c3ccc(S(=O)(=O)N4CCOCC4)cc3)CC2)c1,EC50,[1],> 300 µM (not active)
same,EC50,[2],> 300 µM (not active)
C/C=C(/C)C(=O)Nc1cccc(C2=NOC3(C2)C[C@H](C(N)=O)N(C(=O)COc2ccc(Cl)cc2)C3)c1 (stereo partly drawn),EC50,[6],> 120 µM (not active)
same,EC50,[7],> 120 µM (not active)
same,EC50,[8],87.6 µM (active)
O=C(Nc1cccc(-c2nc3ccccc3o2)c1)c1ccc(N2C(=O)C3C4C=CC(C4)C3C2=O)cc1 (stereo not drawn),EC50,[6],10.5 µM (active)
same,EC50,[7],9.98 µM (active)
same,EC50,[8],> 120 µM (not active)
C=CCNc1nc(N)c([N+](=O)[O-])c(NC2CCCCC2)n1,EC50,[6],28.9 µM (active)
same,EC50,[7],> 120 µM (not active)
same,EC50,[8],0.21 µM (active)
O=c1cnc2cnc(Oc3cccc(Cl)c3)nc2n1C[C@H]1CCCO1,AC50,Cytochrome P450 2C19,39.8 µM (inconclusive)
same,AC50,Cytochrome P450 2C9,15.8 µM (inconclusive)
COc1cccc(-c2cncnc2NCCc2c[nH]c3ccc(OC)cc23)c1,AC50,Cytochrome P450 2C9,0.1 µM (inconclusive)
c1ccc(C(c2ccccc2)N2CC[C@@]3(CCCNC3)C2)cc1,AC50,Cytochrome P450 2C9,31.6 µM (inconclusive)
O=C(CN1C(=O)c2cccc3cccc1c23)N1CCN(c2ccc(F)cc2)CC1,EC50,[3],> 112 µM (not active)
same,EC50,[4],> 112 µM (not active)
Cc1c(C(=O)N2CCCCC2)c(S(=O)(=O)N(C)Cc2ccccc2)c(C)n1C,EC50,[3],> 112 µM (not active)
same,EC50,[4],> 112 µM (not active)
COc1ccc2[nH]cc(CCNc3nc(-c4ccc(C(=O)N(C)C)cc4)nc4ccccc34)c2c1,AC50,Cytochrome P450 2D6,20 µM (inconclusive)
same,AC50,Cytochrome P450 2C9,1 µM (inconclusive)
CC(Sc1nnc(C(C)N(C)C)n1-c1ccc(Cl)cc1)C(=O)Nc1ccc2c(c1)OCO2 (stereo not drawn),AC50,Cytochrome P450 2C9,15.8 µM (inconclusive)
CN(C)CCCN/C=C1\C(=O)NC(=O)N(CCc2ccc(F)cc2)C1=O,EC50,[1],> 300 µM (not active)
same,EC50,[2],> 300 µM (not active)
COCCNC(=O)CSc1ncnc2sccc12,AC50,Cytochrome P450 2C9,28.2 µM (inconclusive)
CCn1c(=O)c([N+](=O)[O-])c(NCCc2ccc(OC)c(OC)c2)c2ccccc21,EC50,[3],> 112 µM (not active)
same,EC50,[4],> 112 µM (not active)
CCCCc1ccc(Nc2nc(N3CCOCC3)nc(N3CCOCC3)n2)cc1,EC50,[3],> 112 µM (not active)
same,EC50,[4],> 112 µM (not active)
Cc1cc(C)n(C(=O)CCCCCCCCC(=O)n2nc(C)cc2C)n1,AC50,Cytochrome P450 1A2,15.8 µM (inconclusive)
same,AC50,Cytochrome P450 2C9,0.251 µM (inconclusive)
COc1cccc(-c2nc(C[S+]([O-])CC(=O)NCCc3ccc(C)cc3)c(C)o2)c1 (stereo not drawn),EC50,[3],> 112 µM (not active)
same,EC50,[4],> 112 µM (not active)
COc1ccc(N2CCN(S(=O)(=O)c3c(C)nc4sccn4c3=O)CC2)cc1,EC50,[3],> 112 µM (not active)
same,EC50,[4],> 112 µM (not active)
O=C1CC(=O)C(n2cncn2)C(c2cccc(Cl)c2)C1 (stereo not drawn),AC50,Cytochrome P450 2C19,3.98 µM (inconclusive)
same,AC50,Cytochrome P450 2C9,25.1 µM (inconclusive)
O=C(NCCCN1CCOCC1)C(=O)N/N=C/c1c2ccccc2cc2ccccc12,EC50,[6],12.2 µM (active)
same,EC50,[7],9.11 µM (active)
same,EC50,[8],13.9 µM (active)
COc1cccc(/C=N/Nc2nnc(C)n2N)c1OCc1ccccc1Cl,EC50,[6],> 120 µM (not active)
same,EC50,[7],> 120 µM (not active)
same,EC50,[8],> 120 µM (not active)
Cc1ccc(C(=O)N/N=C/c2ccc(-c3cccc(C(F)(F)F)c3)o2)cn1,EC50,[6],> 120 µM (not active)
same,EC50,[7],11.9 µM (active)
same,EC50,[8],> 120 µM (not active)
COc1cccc(C(=O)Nc2ccc(-c3nnc(-c4ccco4)o3)cc2)c1,AC50,Cytochrome P450 2C19,2.82 µM (inconclusive)
same,AC50,Cytochrome P450 2C9,1.41 µM (inconclusive)
